Assays:
[1] = test system: mice; conditions: dietary, up to 2 years, 63 mg/kg/day; cited from earlier work
[2] = 2.5 mg, 5 mg, or 10 mg oral; cited from earlier work
[3] = test system: patient with androgenetic alopecia; conditions: 1.25 mg QID
[4] = test system: patients; conditions: cited from earlier work
[5] = test system: dogs; conditions: short-term administration 0.5 mg to 10 mg/kg/day; cited from earlier work
[6] = test system: animal; conditions: long term animal studies; cited from earlier work
[7] = test system: male adults with AGA; conditions: cited from earlier work
[8] = oral; cited from earlier work

Nc1cc(N2CCCCC2)nc(N)[n+]1[O-] [minoxidil]
incidence of hepatic nodules in males [1]: increased incidence of hepatic nodules
differences in systolic and diastolic blood pressure (time effects within treatments) [2]: less than 10%
effect on blood pressure in normotensive subjects [2]: little effect on blood pressure
unwanted hair growth or other adverse events [3]: No unwanted hair growth or other adverse events, including any cardiac effects
emergence of hypertrichosis signs after starting treatment ([4]; human, in vivo): 3-6 weeks
spontaneous reversal of hypertrichosis after cessation of therapy ([4]; human, in vivo): 1-6 months
occurrence of hypertrichosis ([4]; treated patients): most patients
cardiac findings [5]: various cardiac lesions
cardiac findings [6]: cardiac hypertrophy, cardiac dilation, and serosanguineous pericardial fluid
adverse cardiovascular outcomes ([7]; 5 mg oral at bedtime, 24 weeks): No adverse cardiovascular outcomes
change in mean heart rate ([7]; 5 mg oral at bedtime, 24 weeks): no overall change in mean heart rate
laboratory variables before versus after treatment ([7]; 5 mg oral at bedtime, 24 weeks): no differences
subjects developing tachycardia ([7]; at the follow-up visit): 1 subject
absorbed from the gastrointestinal tract [8]: > 90%
